From ChEMBL document CHEMBL4041544, “Discovery of new selective glucocorticoid receptor agonist leads” (Bioorg Med Chem Lett, 2017)

Legend:
Glucocorticoid receptor [1] = molecular target: T1, Glucocorticoid receptor (Homo sapiens, UniProt P04150); test: Transactivation activity at glucocorticoid receptor in human HeLa cells assessed as induction of MMTV promoter activity by luciferase reporter gene assay; format: cell-based
T1 sequence (P04150 whole entry): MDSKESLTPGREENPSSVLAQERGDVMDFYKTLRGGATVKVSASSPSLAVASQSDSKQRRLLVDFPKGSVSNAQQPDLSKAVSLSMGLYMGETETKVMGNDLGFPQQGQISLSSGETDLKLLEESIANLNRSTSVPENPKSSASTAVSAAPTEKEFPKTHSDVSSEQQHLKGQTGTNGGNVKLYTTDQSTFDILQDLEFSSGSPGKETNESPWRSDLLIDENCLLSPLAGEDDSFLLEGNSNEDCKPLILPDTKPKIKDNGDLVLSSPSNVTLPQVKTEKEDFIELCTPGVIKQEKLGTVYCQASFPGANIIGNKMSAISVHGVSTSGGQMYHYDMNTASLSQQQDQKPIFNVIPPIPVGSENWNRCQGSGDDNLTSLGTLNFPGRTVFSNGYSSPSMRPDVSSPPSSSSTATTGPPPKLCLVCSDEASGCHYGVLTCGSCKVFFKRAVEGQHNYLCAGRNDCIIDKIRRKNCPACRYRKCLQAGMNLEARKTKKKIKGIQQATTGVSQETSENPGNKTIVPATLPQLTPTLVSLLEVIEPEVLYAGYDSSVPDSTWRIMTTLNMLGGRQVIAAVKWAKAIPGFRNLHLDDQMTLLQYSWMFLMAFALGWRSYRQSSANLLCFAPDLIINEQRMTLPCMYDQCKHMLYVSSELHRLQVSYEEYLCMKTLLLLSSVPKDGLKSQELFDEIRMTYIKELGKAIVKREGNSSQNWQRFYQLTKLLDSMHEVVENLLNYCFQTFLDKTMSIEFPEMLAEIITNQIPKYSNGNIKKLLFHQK

[2] = Stability in human liver microsomes assessed as drug recovery after 30 mins; format: ADME, microsome; conditions: read-out: Drug recovery
Progesterone receptor = molecular target: T2, Progesterone receptor (Homo sapiens, UniProt P06401); test: Binding affinity to recombinant human progesterone receptor expressed in baculovirus infected sf9 cells
T2 sequence (P06401 whole entry): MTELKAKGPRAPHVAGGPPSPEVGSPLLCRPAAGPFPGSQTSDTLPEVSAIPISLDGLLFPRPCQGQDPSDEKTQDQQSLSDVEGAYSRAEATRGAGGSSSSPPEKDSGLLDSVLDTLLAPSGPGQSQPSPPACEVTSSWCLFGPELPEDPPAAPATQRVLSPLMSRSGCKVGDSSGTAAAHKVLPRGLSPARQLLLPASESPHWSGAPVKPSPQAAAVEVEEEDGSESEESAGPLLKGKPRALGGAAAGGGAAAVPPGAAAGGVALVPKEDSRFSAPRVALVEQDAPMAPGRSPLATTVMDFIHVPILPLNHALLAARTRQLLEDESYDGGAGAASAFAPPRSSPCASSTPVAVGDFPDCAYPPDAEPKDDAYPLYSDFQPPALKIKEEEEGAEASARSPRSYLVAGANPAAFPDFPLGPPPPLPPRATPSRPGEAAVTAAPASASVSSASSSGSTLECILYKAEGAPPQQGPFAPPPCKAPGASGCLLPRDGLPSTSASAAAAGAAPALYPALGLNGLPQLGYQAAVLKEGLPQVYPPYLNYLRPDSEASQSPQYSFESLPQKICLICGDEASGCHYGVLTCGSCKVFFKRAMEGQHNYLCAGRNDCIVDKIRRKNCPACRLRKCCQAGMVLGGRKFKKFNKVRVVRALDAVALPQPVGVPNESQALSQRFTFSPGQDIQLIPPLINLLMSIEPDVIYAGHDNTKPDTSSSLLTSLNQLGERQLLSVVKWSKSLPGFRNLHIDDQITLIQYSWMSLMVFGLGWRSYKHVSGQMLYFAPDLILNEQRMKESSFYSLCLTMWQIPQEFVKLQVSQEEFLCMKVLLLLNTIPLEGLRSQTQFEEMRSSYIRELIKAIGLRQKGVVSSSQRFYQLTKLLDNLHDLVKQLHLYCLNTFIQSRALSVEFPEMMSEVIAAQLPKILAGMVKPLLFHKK

[3] = molecular target: T3, Mineralocorticoid receptor (Homo sapiens, UniProt P08235); test: Binding affinity to recombinant human mineralocorticoid receptor expressed in baculovirus infected sf9 cells
T3 sequence (P08235 whole entry): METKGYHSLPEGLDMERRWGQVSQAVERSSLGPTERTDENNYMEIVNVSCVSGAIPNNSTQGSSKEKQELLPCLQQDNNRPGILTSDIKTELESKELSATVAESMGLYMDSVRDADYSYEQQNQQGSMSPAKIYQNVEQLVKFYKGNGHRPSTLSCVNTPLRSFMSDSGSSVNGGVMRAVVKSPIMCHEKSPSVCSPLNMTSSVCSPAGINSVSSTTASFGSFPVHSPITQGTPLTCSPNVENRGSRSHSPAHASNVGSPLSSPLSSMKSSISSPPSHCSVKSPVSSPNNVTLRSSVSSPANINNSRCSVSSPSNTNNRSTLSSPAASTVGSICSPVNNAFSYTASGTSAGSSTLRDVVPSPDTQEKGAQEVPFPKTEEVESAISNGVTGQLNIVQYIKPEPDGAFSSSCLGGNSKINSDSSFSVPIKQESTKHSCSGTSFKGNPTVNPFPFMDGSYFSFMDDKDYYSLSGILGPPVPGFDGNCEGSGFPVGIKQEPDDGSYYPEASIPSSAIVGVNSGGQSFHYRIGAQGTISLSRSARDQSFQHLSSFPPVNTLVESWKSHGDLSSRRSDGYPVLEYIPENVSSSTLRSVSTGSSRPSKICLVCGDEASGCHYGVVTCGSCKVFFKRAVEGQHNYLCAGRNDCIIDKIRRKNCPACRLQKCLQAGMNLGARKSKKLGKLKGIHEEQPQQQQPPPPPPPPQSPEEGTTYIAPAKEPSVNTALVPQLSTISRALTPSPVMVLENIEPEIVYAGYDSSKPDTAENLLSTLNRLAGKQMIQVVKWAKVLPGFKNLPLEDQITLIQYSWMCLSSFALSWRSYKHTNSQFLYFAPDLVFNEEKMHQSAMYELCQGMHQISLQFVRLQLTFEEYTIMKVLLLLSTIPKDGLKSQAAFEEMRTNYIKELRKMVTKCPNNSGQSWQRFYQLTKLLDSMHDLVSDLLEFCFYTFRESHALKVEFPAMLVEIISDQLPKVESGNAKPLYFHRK

Androgen receptor = molecular target: T4, Androgen receptor (Homo sapiens, UniProt P10275); test: Binding affinity to recombinant human androgen receptor expressed in baculovirus infected sf9 cells
T4 sequence (P10275 whole entry): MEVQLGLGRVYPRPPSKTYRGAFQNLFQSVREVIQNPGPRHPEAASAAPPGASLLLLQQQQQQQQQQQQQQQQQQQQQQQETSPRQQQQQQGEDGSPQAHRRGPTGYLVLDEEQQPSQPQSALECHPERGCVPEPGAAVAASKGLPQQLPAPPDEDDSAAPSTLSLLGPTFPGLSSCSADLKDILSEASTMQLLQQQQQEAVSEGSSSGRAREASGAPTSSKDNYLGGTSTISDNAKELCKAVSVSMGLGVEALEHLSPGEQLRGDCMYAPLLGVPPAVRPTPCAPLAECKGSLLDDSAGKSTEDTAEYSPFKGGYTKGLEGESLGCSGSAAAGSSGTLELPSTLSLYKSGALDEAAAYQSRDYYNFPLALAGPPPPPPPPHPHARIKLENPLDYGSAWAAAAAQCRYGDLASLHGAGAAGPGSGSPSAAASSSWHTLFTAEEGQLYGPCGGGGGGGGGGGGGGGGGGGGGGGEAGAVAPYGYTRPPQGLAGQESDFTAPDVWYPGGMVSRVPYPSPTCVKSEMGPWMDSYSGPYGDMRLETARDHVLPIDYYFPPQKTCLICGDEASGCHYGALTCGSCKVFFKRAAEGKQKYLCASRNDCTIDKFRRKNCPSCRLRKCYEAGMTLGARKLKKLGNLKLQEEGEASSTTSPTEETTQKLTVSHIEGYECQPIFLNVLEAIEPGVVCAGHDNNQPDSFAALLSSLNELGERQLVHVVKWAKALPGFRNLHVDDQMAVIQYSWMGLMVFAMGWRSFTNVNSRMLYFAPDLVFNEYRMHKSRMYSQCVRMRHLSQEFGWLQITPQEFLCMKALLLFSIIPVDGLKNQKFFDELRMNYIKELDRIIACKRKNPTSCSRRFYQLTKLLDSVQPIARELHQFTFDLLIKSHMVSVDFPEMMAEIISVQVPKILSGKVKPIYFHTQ

Glucocorticoid receptor [4] = molecular target: T1, Glucocorticoid receptor; test: Transrepression activity at glucocorticoid receptorin human HeLa cells assessed as inhibition of TPA-induced collagenase promoter activity by luciferase reporter gene assay; format: cell-based
Glucocorticoid receptor [5] = molecular target: T1, Glucocorticoid receptor; test: Transrepression activity at glucocorticoid receptor in human THP1 cells assessed as receptor-mediated anti-inflammatory activity by measuring inhibition of LPS-induced IL-8 production; format: cell-based
Glucocorticoid receptor [6] = molecular target: T1, Glucocorticoid receptor; test: Binding affinity to recombinant human glucocorticoid receptor expressed in baculovirus infected sf9 cells

SMILES	pEC50 (Glucocorticoid receptor [1])	remaining at 0.5 h [2]	IC50 (Progesterone receptor)	IC50 [3]	IC50 (Androgen receptor)	IC50 (Glucocorticoid receptor [4])	IC50 (Glucocorticoid receptor [5])	IC50 (Glucocorticoid receptor [6])
Cc1ccc2c(NCC(O)(CC(C)(C)c3cc(F)ccc3O)C(F)(F)F)cccc2n1 (stereo unspecified)	7.9	31%						
CCSC[C@@](O)([C@@H](Nc1cccc2nc(C)ccc12)c1ccc(OC)c(F)c1Cl)C(F)(F)F			794 nM	> 1000 nM	> 1000 nM			
CC(C)(CC(O)(CNc1cccc2c(=O)[nH]ccc12)C(F)(F)F)c1cccc(F)c1O (stereo unspecified)	7.6	13%	200 nM	> 1000 nM	> 1000 nM	3.98 nM	3.98 nM	2.51 nM

Continued, values first:

pEC50 (Glucocorticoid receptor [1])	remaining at 0.5 h [2]	IC50 (Progesterone receptor)	IC50 [3]	IC50 (Androgen receptor)	IC50 (Glucocorticoid receptor [4])	IC50 (Glucocorticoid receptor [5])	IC50 (Glucocorticoid receptor [6])	SMILES
		> 1000 nM	> 1000 nM	> 1000 nM				CC[C@@H]1C[C@](O)(C(F)(F)F)[C@@H](Nc2cccc3[nH]c(=O)ccc23)c2cc(F)c(F)c(O)c21
6.8		> 1000 nM	> 1000 nM	> 1000 nM	39.8 nM	39.8 nM	126 nM	Cc1ncc2c(N[C@H]3c4ccc(F)c(O)c4C(C)(C)C[C@]3(O)C(F)(F)F)cc(F)cc2n1
7.9	86%	794 nM	> 1000 nM	> 1000 nM	5.01 nM	5.01 nM	12.6 nM	CC[C@@H]1C[C@](O)(C(F)(F)F)[C@@H](Nc2cccc3nc(C)ccc23)c2ccc(F)c(O)c21
